Source: the supplement of paper PMC11451515

Experiments:
Conditions in all cases: 48 h
[1] = system: NOMO1; assay: AUC of viability dose-response curve (% viability x log10 dose units); higher = less sensitive
How it was run: (§1)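 Seeding of medium-adapted leukemia cells was at 500 or 1000 cells/well in 1536-well plates, followed by 48 h at 37°C with library compounds in DMSO at 11 threefold doses from 47 μM to 0.79 nM. CellTiter-Glo One luminescence was normalised per plate to DMSO and cell-free wells and fitted as a four-parameter log-logistic function of log10 dose. Area under the curve was integrated by trapezoidal rule, with curves exceeding full viability scaled and curves failing quality control removed.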

[2] = system: P12-Ichikawa; assay: as above
How it was run: as §1

[3] = system: SEM cells; assay: as above
How it was run: as §1

[4] = system: NOMO1; assay: cell viability relative to DMSO control; higher = less cytotoxic
How it was run: (§2)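 Library compounds in DMSO were pin-dosed in an 11-point threefold series (47 μM to 0.79 nM) onto leukemia cells in 1536-well plates (5 μl). Plates held 500 cells/well of NOMO1 or SEM or 1000 cells/well of P12-Ichikawa, each adapted for at least four passages in each medium. Luminescence was read with CellTiter-Glo One after 48 h at 37°C. Viability means the per-plate percentage relative to DMSO wells, using cell-free wells as background.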

[5] = system: P12-Ichikawa; assay: as above
How it was run: as §2

[6] = system: SEM cells; assay: as above
How it was run: as §2

O=c1oc2c(O)c(O)cc3c(=O)oc4c(O)c(O)cc1c4c23
AUC of viability dose-response curve
Conditions	[1]	[2]	[3]
HPLM + 10% dialyzed FBS	455	444	471
RPMI 5 mM glucose + 10% FBS	454	452	467
RPMI 5 mM glucose + 10% dialyzed FBS	466	458	451

C[C@]12CC(=O)[C@H]3[C@@H](CC\C4=C\C(=O)\C=C/[C@]34C)[C@@H]1CC[C@]2(O)C(=O)CO
AUC of viability dose-response curve
Conditions	[1]	[2]	[3]
HPLM + 10% dialyzed FBS	472	458	470
RPMI 5 mM glucose + 10% FBS	461	461	457
RPMI 5 mM glucose + 10% dialyzed FBS	471	438	469

Cc1onc(-c2ccccc2)c1C(=O)N[C@@H]1C(=O)N2[C@@H]1SC(C)(C)[C@@H]2C(=O)[O-].[Na+]
cell viability [%]
Conditions	[4]	[5]	[6]
HPLM + 10% dialyzed FBS, 0.000781 µM	120	109	85.9
HPLM + 10% dialyzed FBS, 0.00234 µM	131	116	75.7
HPLM + 10% dialyzed FBS, 0.00702 µM	105	120	87.2
HPLM + 10% dialyzed FBS, 0.0211 µM	113	108	84
HPLM + 10% dialyzed FBS, 0.0632 µM	134	116	86.5
HPLM + 10% dialyzed FBS, 0.19 µM	98.5	113	75.3
HPLM + 10% dialyzed FBS, 0.569 µM	95.5	113	89.6
HPLM + 10% dialyzed FBS, 1.71 µM	64.5	104	93.4
HPLM + 10% dialyzed FBS, 5.12 µM	77.8	86.4	85.2
HPLM + 10% dialyzed FBS, 15.4 µM	51.1	81.3	82.1
HPLM + 10% dialyzed FBS, 46.1 µM	54.7	77.2	80.2
RPMI 5 mM glucose + 10% FBS, 0.000781 µM	112	114	109
RPMI 5 mM glucose + 10% FBS, 0.00234 µM	111	117	94.2
RPMI 5 mM glucose + 10% FBS, 0.00702 µM	117	111	105
RPMI 5 mM glucose + 10% FBS, 0.0211 µM	104	111	114
RPMI 5 mM glucose + 10% FBS, 0.0632 µM	112	130	108
RPMI 5 mM glucose + 10% FBS, 0.19 µM	103	122	109
RPMI 5 mM glucose + 10% FBS, 0.569 µM	101	112	114
RPMI 5 mM glucose + 10% FBS, 1.71 µM	79.5	85.3	86.4
RPMI 5 mM glucose + 10% FBS, 5.12 µM	77.7	71	102
RPMI 5 mM glucose + 10% FBS, 15.4 µM	84.7	71.8	132
RPMI 5 mM glucose + 10% FBS, 46.1 µM	56.8	68.2	103
RPMI 5 mM glucose + 10% dialyzed FBS, 0.000781 µM	111	104	115
RPMI 5 mM glucose + 10% dialyzed FBS, 0.00234 µM	109	112	104
RPMI 5 mM glucose + 10% dialyzed FBS, 0.00702 µM	115	131	111
RPMI 5 mM glucose + 10% dialyzed FBS, 0.0211 µM	114	139	113
RPMI 5 mM glucose + 10% dialyzed FBS, 0.0632 µM	101	123	133
RPMI 5 mM glucose + 10% dialyzed FBS, 0.19 µM	97.4	100	112
RPMI 5 mM glucose + 10% dialyzed FBS, 0.569 µM	98.6	92.7	118
RPMI 5 mM glucose + 10% dialyzed FBS, 1.71 µM	88.9	89.6	107
RPMI 5 mM glucose + 10% dialyzed FBS, 5.12 µM	72.2	75.9	111
RPMI 5 mM glucose + 10% dialyzed FBS, 15.4 µM	67.1	62.4	108
RPMI 5 mM glucose + 10% dialyzed FBS, 46.1 µM	53.8	67.8	100

AUC of viability dose-response curve
Conditions	HPLM + 10% dialyzed FBS	RPMI 5 mM glucose + 10% FBS	RPMI 5 mM glucose + 10% dialyzed FBS
[1]	379	407	401
[2]	440	414	394

C=C1C(=O)OC2/C=C(/C)CC/C=C(/C)CCC12 (stereo not drawn)
AUC of viability dose-response curve
Conditions	[1]	[2]	[3]
HPLM + 10% dialyzed FBS	444	454	455
RPMI 5 mM glucose + 10% FBS	463	442	449
RPMI 5 mM glucose + 10% dialyzed FBS	457	448	446

COc1ccc2c(c1OC)C(=O)O[C@H]2[C@H]1c2c(cc3c(c2OC)OCO3)CCN1C
AUC of viability dose-response curve
Conditions	[1]	[2]	[3]
HPLM + 10% dialyzed FBS	246	284	263
RPMI 5 mM glucose + 10% FBS	273	277	233
RPMI 5 mM glucose + 10% dialyzed FBS	277	294	247

O=C(O)CCCc1c[nH]c2ccccc12
[6], HPLM + 10% dialyzed FBS
Conditions	cell viability [%]
0.000781 µM	111
0.00234 µM	122
0.00702 µM	130
0.0211 µM	144
0.0632 µM	105
0.19 µM	113
0.569 µM	102
1.71 µM	124
5.12 µM	138
15.4 µM	131
46.1 µM	97.9

AUC of viability dose-response curve
Conditions	HPLM + 10% dialyzed FBS	RPMI 5 mM glucose + 10% FBS	RPMI 5 mM glucose + 10% dialyzed FBS
[2]	468	431	452
[3]	468	441	431

Clc1ccc(COC(Cn2ccnc2)c2ccc(Cl)cc2Cl)c(Cl)c1 (stereo not drawn)
[6], HPLM + 10% dialyzed FBS
Conditions	cell viability [%]
0.000781 µM	121
0.00234 µM	120
0.00702 µM	112
0.0211 µM	123
0.0632 µM	104
0.19 µM	115
0.569 µM	114
1.71 µM	124
5.12 µM	99.3
15.4 µM	109
46.1 µM	70

AUC of viability dose-response curve
Conditions	[1]	[2]	[3]
HPLM + 10% dialyzed FBS	425	452	462
RPMI 5 mM glucose + 10% FBS	468	467	460
RPMI 5 mM glucose + 10% dialyzed FBS	452	419	449

CN(C)/N=N/c1nc[nH]c1C(N)=O
[6], HPLM + 10% dialyzed FBS
Conditions	cell viability [%]
0.000781 µM	121
0.00234 µM	122
0.00702 µM	117
0.0211 µM	126
0.0632 µM	125
0.19 µM	120
0.569 µM	128
1.71 µM	119
5.12 µM	123
15.4 µM	106
46.1 µM	105

AUC of viability dose-response curve
Conditions	[1]	[2]	[3]
HPLM + 10% dialyzed FBS	416	422	467
RPMI 5 mM glucose + 10% FBS	435	410	462
RPMI 5 mM glucose + 10% dialyzed FBS	392	374	307

NC(=O)c1ccc2[nH]c(-c3ccc(Oc4ccc(Cl)cc4)cc3)nc2c1
[6], HPLM + 10% dialyzed FBS
Conditions	cell viability [%]
0.000781 µM	115
0.00234 µM	113
0.00702 µM	136
0.0211 µM	121
0.0632 µM	117
0.19 µM	65.4
0.569 µM	133
1.71 µM	124
5.12 µM	134
15.4 µM	118
46.1 µM	91.9

AUC of viability dose-response curve
Conditions	[1]	[2]	[3]
HPLM + 10% dialyzed FBS	457	463	470
RPMI 5 mM glucose + 10% FBS	472	454	446
RPMI 5 mM glucose + 10% dialyzed FBS	475	453	463
